What was measured:
[1] = system: human HepG2 liver cells; assay: Intracellular fat content in HepG2 cells, AdipoRed/Hoechst 33258 double staining, 48 hours; assay type: cell-based; details: HepG2, 0.8 mM palmitoleic acid, 0.1 μM compound, FIG. 10C; for palmitoleic acid-induced increase of intracellular triglyceride content: vs DMSO
Experimental: And the effects of Compound 001, Compound 004, Compound 006, Compound 013, Compound 132, Compound 133 and Compound 134, as further exemplary compounds of the invention, were also tested. Human HepG2 liver cells were incubated with 0.8 mM palmitoleic acid in EMEM medium for 48 hours in the presence of 0.1 μM compounds of the invention or control vehicle, DMSO. Subsequently, the cells were washed with PBS and the intracellular fat content was measured by AdipoRed/Hoechst 33258 double staining, which was assessed by flourometry.

[2] = system: human HepG2 liver cells; assay: Intracellular fat content in HepG2 cells, AdipoRed/Hoechst 33258 double staining, 24 hours; assay type: cell-based; details: HepG2, 0.8 mM palmitoleic acid, 0.1 μM compound, FIG. 10B; for palmitoleic acid-induced increase of intracellular triglyceride content: vs DMSO
Experimental: The effects of Compound 13-3-1, Compound 13-3-2, Compound 13-3-3, Compound 13-3-5, Compound 13-3-6, Compound 13-3-7, Compound 15-1, Compound 13-3-10 and Compound 13-3-11, as exemplary compounds of the invention, were tested. Human HepG2 liver cells were incubated with 0.8 mM palmitoleic acid in EMEM medium for 24 hours in the presence of 0.1 μM compounds or control vehicle, DMSO. Subsequently, the cells were washed with PBS and the intracellular fat content was measured by AdipoRed/Hoechst 33258 double staining, which was assessed by flourometry.

SMILES | inhibitory effect on fat accumulation as compared to Compound 14-3 [1] | palmitoleic acid-induced increase of intracellular triglyceride content [1] | inhibitory effect on fat accumulation as compared to Compound 14-3 [2] | palmitoleic acid-induced increase of intracellular triglyceride content [2]
[2H]C([2H])(NC(=O)c1c(C)[nH]c(/C=C2\C(=O)Nc3ccc(-c4csc(-c5ccccc5)n4)cc32)c1C)C([2H])([2H])N(CC)CC [Compound 001] | comparable or greater | markedly suppressed | – | –
[2H]C([2H])([2H])C([2H])([2H])N(C([2H])([2H])C([2H])([2H])[2H])C([2H])([2H])C([2H])([2H])NC(=O)c1c(C)[nH]c(/C=C2\C(=O)Nc3ccc(-c4csc(-c5ccccc5)n4)cc32)c1C [Compound 004] | comparable or greater | markedly suppressed | – | –
[2H]c1c([2H])c([2H])c(-c2nc(-c3ccc4c(c3)/C(=C/c3[nH]c(C)c(C(=O)NC([2H])([2H])C([2H])([2H])N(C([2H])([2H])C([2H])([2H])[2H])C([2H])([2H])C([2H])([2H])[2H])c3C)C(=O)N4)cs2)c([2H])c1[2H] [Compound 006] | comparable or greater | markedly suppressed | – | –
CCN(CC)CCNC(=O)c1c(C)[nH]c(/C=C2\C(=O)Nc3ccc(-c4csc(Nc5ccccc5)n4)cc32)c1C [Compound 13-3-1] | – | – | comparable or greater | markedly suppressed
CCN(CC)CCNC(=O)c1c(C)[nH]c(/C=C2\C(=O)Nc3ccc(-c4csc(N5CCCCC5)n4)cc32)c1C [Compound 13-3-2] | – | – | comparable or greater | markedly suppressed
CCN(CC)CCNC(=O)c1c(C)[nH]c(/C=C2\C(=O)Nc3cccc(-c4cnc(OC)nc4)c32)c1C [Compound 13-3-5] | – | – | comparable or greater | markedly suppressed
CCN(CC)CCC(=O)N1CCN(c2ccc(/C=C3\C(=O)Nc4ccc(-c5csc(-c6ccccc6)n5)cc43)cc2)CC1 [Compound 13-3-6] | – | – | comparable or greater | markedly suppressed
CCN(CC)CCNC(=O)CCc1c(C)[nH]c(/C=C2\C(=O)Nc3ccc(-c4csc(-c5ccccc5)n4)cc32)c1C [Compound 13-3-7] | – | – | comparable or greater | markedly suppressed
CCN(CC)CCNC(=O)c1c(C)[nH]c(/C=C2\C(=O)Nc3cnc(-c4csc(-c5ccccc5)n4)cc32)c1C [Compound 13-3-10] | – | – | comparable or greater | markedly suppressed
CCN(CC)CCNC(=O)c1c(C)[nH]c(/C=C2\C(=O)Nc3ccc(C4CCN(c5ccccc5)CC4)cc32)c1C [Compound 13-3-11] | – | – | comparable or greater | markedly suppressed
[2H]c1c([2H])c([2H])c(-c2nc(-c3ccc4c(c3)/C(=C/c3[nH]c(C)c(C(=O)NC([2H])([2H])C([2H])([2H])N(CC)CC)c3C)C(=O)N4)cs2)c([2H])c1[2H] [Compound 013] | comparable or greater | markedly suppressed | – | –
Cc1[nH]c(/C=C2\C(=O)Nc3ccc(-c4csc(-c5cccnc5)n4)cc32)c(C)c1C(=O)N1CCN(C)CC1 [Compound 15-1] | – | – | comparable or greater | markedly suppressed

Reference: patent publication US12390460B2, “Treatment for obesity” (1GLOBE BIOMEDICAL CO., LTD., priority 2018, dated 2025)
